Data taken from US8247211B2, “Glycopeptide antibiotics” (American Cyanamid Company, priority 2001, dated 2012).
In brackets after ≈: the same amount, converted by molar mass. Numbered stars: 1 amine (or outer) side, 2 acyl side, 3 side chain; on linkers, the order of the positions; unused ones are H or OH. Square brackets hold non-standard residues; d marks the D form. Peptide text beside a SMILES is read from it. * marks the point of attachment. ξ: configuration not given here. X1 = N=C1NCC(C(O)C(N[*:1])C(=O)[*:2])N1C1OC(CO)C(O)C(O)C1O; ξEnduracididine(βξ-OH,4'ξ) = N=C1NCC(C(O)C(N)C(=O)O)N1; X2 = OCC1OC(OC2C(CO)OC(*)C(O)C2O)C(O)C(O)C1O; ξCha(3ξ-Me) = CC(C1CCCCC1)C(N)C(=O)O

What was measured:
Test in all cases: In vitro antibacterial evaluation: minimum inhibitory concentration (MIC), broth dilution method
Assay type in all cases: cell-based
Escherichia coli = details: broth dilution, 18 hours at 35° C.
Streptococcus sp. = details: broth dilution, 18 hours at 35° C.
Summary of the method: (§1)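 Values are minimum inhibitory concentrations, meaning the smallest antibiotic concentration that stops growth of the organism. They come from broth dilution in Muller-Hinton II […] per NCCLS guidance (M7-A2), using 5×10^5 CFU/mL and concentrations from 64 to 0.06 μg/mL.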

Staphylococcus sp. = details: broth dilution, 18 hours at 35° C.; for MIC Staphylococcus aureus-SMITH (GC 4543): strain SMITH GC 4543
Summary of the method: as §1

Enterococcus sp. = details: broth dilution, 18 hours at 35° C.
Summary of the method: as §1

[1] = Streptococcus agalactiae (GC 4564)
[2] = Streptococcus pneumoniae (ATCC 6301)
[3] = Streptococcus pneumoniae (GC 1894)
[4] = Streptococcus pneumoniae (GC 4565)
[5] = Streptococcus pyogenes (GC 4563)
[6] = Enterococcus faecalis (ATCC 29212)
[7] = Enterococcus faecalis (GC 2242)
[8] = Enterococcus faecalis (GC 2691)
[9] = Enterococcus faecalis (GC 3059)
[10] = Enterococcus faecalis (GC 4552)
[11] = Enterococcus faecalis (GC 4553)
[12] = Enterococcus faecalis (GC 4554)
[13] = Enterococcus faecalis (GC 6189)

In the case of `CC(C1CCCCC1)C1NC(=O)CNC(=O)C(CO)NC(=O)C(C(O)C2CNC(=N)N2C2OC(CO)C(O)C(O)C2O)NC(=O)C(C(O)C2CNC(=N)N2)NC(=O)C(Cc2ccc(OC3OC(CO)C(OC4OC(CO)C(O)C(O)C4O)C(O)C3O)cc2)NC1=O` (stereo not drawn) [Example 51, Cyclo[3-cyclohexyl-2-aminobutyl-O-(4-O-hexopyranosylhexopyranosyl)tyrosyl-3-(2-iminoimidazolidin-4-yl)seryl-3-(3-hexopyranosyl-2-iminoimidazolidin-4-yl)-serylserylglycyl]] (cyclo(G[ξCha(3ξ-Me)]Y(X2)[ξEnduracididine(βξ-OH,4'ξ)][X1]S); configuration not given here), the “MIC Escherichia coli (ATCC 25922)” value (Escherichia coli) is reported as over 64 µg/mL, the “MIC Escherichia coli (GC 4559)” value (Escherichia coli) is reported as 64 µg/mL (≈ 49.2 µM) and the “MIC Escherichia coli (GC 4560)” value (Escherichia coli) is reported as 8 µg/mL (≈ 6.15 µM). For the same molecule, the “MIC Streptococcus agalactiae (GC 4564)” value (Streptococcus sp.; [1]) was 16 µg/mL (≈ 12.3 µM), the “MIC Streptococcus pneumoniae (ATCC 6301)” value (Streptococcus sp.; [2]) was 8 µg/mL (≈ 6.15 µM) and the “MIC Streptococcus pneumoniae (GC 1894)” value (Streptococcus sp.; [3]) was 4 µg/mL (≈ 3.07 µM). For the same molecule, the “MIC Streptococcus pneumoniae (GC 4565)” value (Streptococcus sp.; [4]) was 8 µg/mL (≈ 6.15 µM), the “MIC Streptococcus pyogenes (GC 4563)” value (Streptococcus sp.; [5]) was 8 µg/mL (≈ 6.15 µM) and the “MIC Streptococcus agalactiae (GC 4564)” value (Streptococcus sp.) was 16 µg/mL (≈ 12.3 µM). For the same molecule, the “MIC Streptococcus pneumoniae (ATCC 6301)” value (Streptococcus sp.) was 8 µg/mL (≈ 6.15 µM), the “MIC Streptococcus pneumoniae (GC 1894)” value (Streptococcus sp.) was 4 µg/mL (≈ 3.07 µM) and the “MIC Streptococcus pneumoniae (GC 4565)” value (Streptococcus sp.) was 8 µg/mL (≈ 6.15 µM). The “MIC Streptococcus pyogenes (GC 4563)” value (Streptococcus sp.) was 8 µg/mL (≈ 6.15 µM), the “MIC Coagulase Negative Staphylococcus (GC 4547)” value (Staphylococcus sp.) was 16 µg/mL (≈ 12.3 µM) and the “MIC Coagulase Negative Staphylococcus (GC 4548)” value (Staphylococcus sp.) was 16 µg/mL (≈ 12.3 µM). The “MIC Coagulase Negative Staphylococcus (GC 4549)” value (Staphylococcus sp.) was 4 µg/mL (≈ 3.07 µM), the “MIC Coagulase Negative Staphylococcus (GC 4551)” value (Staphylococcus sp.) was 64 µg/mL (≈ 49.2 µM) and the “MIC Staphylococcus aureus SMITH (GC 4543)” value (Staphylococcus sp.) was 32 µg/mL (≈ 24.6 µM). For the same molecule, the “MIC Staphylococcus haemolyticus (GC 4546)” value (Staphylococcus sp.) was 32 µg/mL (≈ 24.6 µM), the “MIC Staphylococcus aureus-SMITH (GC 4543)” value (Staphylococcus sp.) was 32 µg/mL (≈ 24.6 µM) and the “MIC Enterococcus avium (GC 4558)” value (Enterococcus sp.; Enterococcus avium (GC 4558)) was 64 µg/mL (≈ 49.2 µM). The “MIC Enterococcus faecalis (ATCC 29212)” value (Enterococcus sp.; [6]) was over 64 µg/mL, the “MIC Enterococcus faecalis (GC 2242)” value (Enterococcus sp.; [7]) was 64 µg/mL (≈ 49.2 µM) and the “MIC Enterococcus faecalis (GC 2691)” value (Enterococcus sp.; [8]) was over 64 µg/mL. The “MIC Enterococcus faecalis (GC 3059)” value (Enterococcus sp.; [9]) was over 64 µg/mL, the “MIC Enterococcus faecalis (GC 4552)” value (Enterococcus sp.; [10]) was over 64 µg/mL and the “MIC Enterococcus faecalis (GC 4553)” value (Enterococcus sp.; [11]) was over 64 µg/mL. For the same molecule, the “MIC Enterococcus faecalis (GC 4554)” value (Enterococcus sp.; [12]) was over 64 µg/mL, the “MIC Enterococcus faecalis (GC 6189)” value (Enterococcus sp.; [13]) was over 64 µg/mL and the “MIC Enterococcus faecium (GC 2243)” value (Enterococcus sp.; Enterococcus faecium (GC 2243)) was over 64 µg/mL. The “MIC Enterococcus faecium (GC 4556)” value (Enterococcus sp.; Enterococcus faecium (GC 4556)) was over 64 µg/mL, the “MIC Enterococcus faecium (GC 4557)” value (Enterococcus sp.; Enterococcus faecium (GC 4557)) was 16 µg/mL (≈ 12.3 µM) and the “MIC Enterococcus avium (GC 4558)” value (Enterococcus sp.) was 64 µg/mL (≈ 49.2 µM). For the same molecule, the “MIC Enterococcus faecalis (ATCC 29212)” value (Enterococcus sp.) was over 64 µg/mL, the “MIC Enterococcus faecalis (GC 2242)” value (Enterococcus sp.) was 64 µg/mL (≈ 49.2 µM) and the “MIC Enterococcus faecalis (GC 2691)” value (Enterococcus sp.) was over 64 µg/mL. The “MIC Enterococcus faecalis (GC 3059)” value (Enterococcus sp.) was over 64 µg/mL, the “MIC Enterococcus faecalis (GC 4552)” value (Enterococcus sp.) was over 64 µg/mL and the “MIC Enterococcus faecalis (GC 4553)” value (Enterococcus sp.) was over 64 µg/mL. The “MIC Enterococcus faecalis (GC 4554)” value (Enterococcus sp.) was over 64 µg/mL, the “MIC Enterococcus faecalis (GC 6189)” value (Enterococcus sp.) was over 64 µg/mL and the “MIC Enterococcus faecium (GC 2243)” value (Enterococcus sp.) was over 64 µg/mL. The “MIC Enterococcus faecium (GC 4556)” value (Enterococcus sp.) was over 64 µg/mL and the “MIC Enterococcus faecium (GC 4557)” value (Enterococcus sp.) was 16 µg/mL (≈ 12.3 µM).
`CC(c1ccccc1)C1NC(=O)CNC(=O)C(CO)NC(=O)C(C(O)C2CNC(=N)N2C2OC(CO)C(O)C(O)C2O)NC(=O)C(C(O)C2CNC(=N)N2)NC(=O)C(Cc2ccc3oc(SCc4ccc(-c5ccccc5)cc4)nc3c2)NC1=O` (stereo not shown) [Example 47] was tested, and the “MIC Escherichia coli (ATCC 25922)” value (Escherichia coli) was over 64 µg/mL, the “MIC Escherichia coli (GC 4559)” value (Escherichia coli) was over 64 µg/mL and the “MIC Escherichia coli (GC 4560)” value (Escherichia coli) was 32 µg/mL (≈ 26.8 µM). The “MIC Streptococcus agalactiae (GC 4564)” value (Streptococcus sp.; [1]) was 2 µg/mL (≈ 1.67 µM), the “MIC Streptococcus pneumoniae (ATCC 6301)” value (Streptococcus sp.; [2]) was 4 µg/mL (≈ 3.35 µM) and the “MIC Streptococcus pneumoniae (GC 1894)” value (Streptococcus sp.; [3]) was 2 µg/mL (≈ 1.67 µM). For the same molecule, the “MIC Streptococcus pneumoniae (GC 4565)” value (Streptococcus sp.; [4]) was 8 µg/mL (≈ 6.7 µM), the “MIC Streptococcus pyogenes (GC 4563)” value (Streptococcus sp.; [5]) was 1 µg/mL (≈ 0.837 µM) and the “MIC Streptococcus agalactiae (GC 4564)” value (Streptococcus sp.) was 2 µg/mL (≈ 1.67 µM). For the same molecule, the “MIC Streptococcus pneumoniae (ATCC 6301)” value (Streptococcus sp.) was 4 µg/mL (≈ 3.35 µM), the “MIC Streptococcus pneumoniae (GC 1894)” value (Streptococcus sp.) was 2 µg/mL (≈ 1.67 µM) and the “MIC Streptococcus pneumoniae (GC 4565)” value (Streptococcus sp.) was 8 µg/mL (≈ 6.7 µM). For the same molecule, the “MIC Streptococcus pyogenes (GC 4563)” value (Streptococcus sp.) was 1 µg/mL (≈ 0.837 µM), the “MIC Coagulase Negative Staphylococcus (GC 4547)” value (Staphylococcus sp.) was 16 µg/mL (≈ 13.4 µM) and the “MIC Coagulase Negative Staphylococcus (GC 4548)” value (Staphylococcus sp.) was 2 µg/mL (≈ 1.67 µM). For the same molecule, the “MIC Coagulase Negative Staphylococcus (GC 4549)” value (Staphylococcus sp.) was 0.5 µg/mL (≈ 0.419 µM), the “MIC Coagulase Negative Staphylococcus (GC 4551)” value (Staphylococcus sp.) was 8 µg/mL (≈ 6.7 µM) and the “MIC Staphylococcus aureus SMITH (GC 4543)” value (Staphylococcus sp.) was 8 µg/mL (≈ 6.7 µM). The “MIC Staphylococcus haemolyticus (GC 4546)” value (Staphylococcus sp.) was 8 µg/mL (≈ 6.7 µM), the “MIC Staphylococcus aureus-SMITH (GC 4543)” value (Staphylococcus sp.) was 8 µg/mL (≈ 6.7 µM) and the “MIC Enterococcus avium (GC 4558)” value (Enterococcus sp.; Enterococcus avium (GC 4558)) was 2 µg/mL (≈ 1.67 µM). For the same molecule, the “MIC Enterococcus faecalis (ATCC 29212)” value (Enterococcus sp.; [6]) was 8 µg/mL (≈ 6.7 µM), the “MIC Enterococcus faecalis (GC 2242)” value (Enterococcus sp.; [7]) was 4 µg/mL (≈ 3.35 µM) and the “MIC Enterococcus faecalis (GC 2691)” value (Enterococcus sp.; [8]) was 32 µg/mL (≈ 26.8 µM). The “MIC Enterococcus faecalis (GC 3059)” value (Enterococcus sp.; [9]) was 32 µg/mL (≈ 26.8 µM), the “MIC Enterococcus faecalis (GC 4552)” value (Enterococcus sp.; [10]) was 16 µg/mL (≈ 13.4 µM) and the “MIC Enterococcus faecalis (GC 4553)” value (Enterococcus sp.; [11]) was 4 µg/mL (≈ 3.35 µM). For the same molecule, the “MIC Enterococcus faecalis (GC 4554)” value (Enterococcus sp.; [12]) was 64 µg/mL (≈ 53.6 µM), the “MIC Enterococcus faecalis (GC 6189)” value (Enterococcus sp.; [13]) was 32 µg/mL (≈ 26.8 µM) and the “MIC Enterococcus faecium (GC 2243)” value (Enterococcus sp.; Enterococcus faecium (GC 2243)) was 4 µg/mL (≈ 3.35 µM). For the same molecule, the “MIC Enterococcus faecium (GC 4556)” value (Enterococcus sp.; Enterococcus faecium (GC 4556)) was 8 µg/mL (≈ 6.7 µM), the “MIC Enterococcus faecium (GC 4557)” value (Enterococcus sp.; Enterococcus faecium (GC 4557)) was 4 µg/mL (≈ 3.35 µM) and the “MIC Enterococcus avium (GC 4558)” value (Enterococcus sp.) was 2 µg/mL (≈ 1.67 µM). For the same molecule, the “MIC Enterococcus faecalis (ATCC 29212)” value (Enterococcus sp.) was 8 µg/mL (≈ 6.7 µM), the “MIC Enterococcus faecalis (GC 2242)” value (Enterococcus sp.) was 4 µg/mL (≈ 3.35 µM) and the “MIC Enterococcus faecalis (GC 2691)” value (Enterococcus sp.) was 32 µg/mL (≈ 26.8 µM). For the same molecule, the “MIC Enterococcus faecalis (GC 3059)” value (Enterococcus sp.) was 32 µg/mL (≈ 26.8 µM), the “MIC Enterococcus faecalis (GC 4552)” value (Enterococcus sp.) was 16 µg/mL (≈ 13.4 µM) and the “MIC Enterococcus faecalis (GC 4553)” value (Enterococcus sp.) was 4 µg/mL (≈ 3.35 µM). For the same molecule, the “MIC Enterococcus faecalis (GC 4554)” value (Enterococcus sp.) was 64 µg/mL (≈ 53.6 µM), the “MIC Enterococcus faecalis (GC 6189)” value (Enterococcus sp.) was 32 µg/mL (≈ 26.8 µM) and the “MIC Enterococcus faecium (GC 2243)” value (Enterococcus sp.) was 4 µg/mL (≈ 3.35 µM). The “MIC Enterococcus faecium (GC 4556)” value (Enterococcus sp.) was 8 µg/mL (≈ 6.7 µM) and the “MIC Enterococcus faecium (GC 4557)” value (Enterococcus sp.) was 4 µg/mL (≈ 3.35 µM).
